Measured values reported in patent US8759339B2, “Pyrrolo[2,1-c][1,4]naphthodiazepine linked piperazine compounds and a process for the preparation thereof” (Council of Scientific & Industrial Research, priority 2011, dated 2014).
Like-named read-outs stand apart in the source and are kept apart here.

Assays:
calf thymus DNA (CT-DNA) = experiment: Thermal denaturation studies with duplex-form calf thymus DNA; format: binding; conditions: [PND]/[DNA] molar ratio 1:5, CT-DNA 100 μM, ligand 20 μM, aqueous sodium phosphate buffer pH 7; for ΔTm after incubation at 37° C. for 0 hr: 0 hr at 37° C.; for ΔTm after incubation at 37° C. for 18 hrs: 18 hrs at 37° C.
Description: Compounds have been subjected to thermal denaturation studies with duplex-form calf thymus DNA (CT-DNA) using an modification of a reported procedure (Newman, M. S. Carcinog-compr. Surv. 1976, 1, 203; (b) Hecht, S. S.; Loy, M.; Hoffman, Carcinog-compr. Surv. 1976, 1, 325). Working solutions in aqueous buffer (10 mM NaH2PO4/Na2HPO4, 1 mM Na2EDTA, pH 7.00+0.01) containing CT-DNA (100 μm in phosphate) and the PND (pyrrolo naphtha diazepine) (20 μm) have been prepared by addition of concentrated PND (pyrrolo naphtha diazepine) solutions in DMSO to obtain a fixed [PND]/[DNA] molar ratio of 1:5. The DNA-PND (pyrrolo naphtha diazepine) solutions have been incubated at 37° C. for 0 and 18 h prior to analysis. Samples have been monitored at 260 nm using a Beckman DU-800 spectrophotometer fitted with high performance temperature controller, and heated at 1° C. min in the 40-110° C. range. DNA helix→coil transition temperatures (Tm) have been obtained from the maxima in the d(A260)/dT derivative plots. Drug-induced alterations in DNA melting behavior are given by: ΔTm=Tm(DNA+PND)−Tm(DNA alone), where the Tm value for the PND-free CT-DNA is 69.1±0.01.
The DNA binding activity for these novel substituted piperazine linked pyrrolo naphtho diazepine hybrids has been examined by thermal denaturation studies using calf thymus (CT) DNA. […] The data for some of the compounds are included in Table 1 for comparison.

[1] = tested on: A549 lung cancer cell line; experiment: In vitro anticancer activity, MTT assay; format: cell-based, human; conditions: for in-vitro cytotoxicity in lung cancer cell line (A549): result in words
Description: (§1) In vitro biological activity studies were carried out at the pharmacology division, IICT, Hyderabad. The compounds were evaluated for in vitro anticancer activity against eight tumour cell lines derived from […] cancer types (breast, lung, liver, skeletal, kidney, prostrate, small intestine) as shown in Table 2. For each compound, dose response curves for each cell line were measured at a minimum of five concentrations at 10 fold dilutions. A protocol of 48 h continuous drug exposure was used and a MTT assay was used to estimate cell viability or growth. The concentration causing 50% inhibition (IC50) compared with the control was calculated. Some of the compounds have been evaluated for their in vitro cytotoxicity in eight cell lines from seven human cancer types. The results are expressed as IC50 determined relative to that of untreated control cells (Table-2).

[2] = tested on: HEPG2 liver cancer cell line; experiment: In vitro anticancer activity, MTT assay; format: cell-based, human; conditions: for in-vitro cytotoxicity in liver cancer cell line (HEPG2): result in words
Description: as §1

[3] = tested on: MCF7 breast cancer cell line; experiment: In vitro anticancer activity, MTT assay; format: cell-based, human; conditions: for IC50: breast cancer cell line, MTT, 48 h continuous drug exposure; for in-vitro cytotoxicity in breast cancer cell line (MCF-7): result in words
Description: as §1

[4] = tested on: NCIH460 large cell lung cancer cell line; experiment: In vitro anticancer activity, MTT assay; format: cell-based, human; conditions: for IC50: large cell lung cancer cell line, MTT, 48 h continuous drug exposure; for in-vitro cytotoxicity in large cell lung cancer cell line (NCIH460): result in words
Description: as §1

[5] = tested on: PC-3 prostrate cancer cell line; experiment: In vitro anticancer activity, MTT assay; format: cell-based, human; conditions: for IC50: prostrate cancer cell line, MTT, 48 h continuous drug exposure; for in-vitro cytotoxicity in prostrate cancer cell line (PC-3): result in words
Description: as §1

[6] = In vitro anticancer activity, MTT assay; format: cell-based; conditions: kidney cancer cell line, MTT, 48 h continuous drug exposure
Description: as §1

[7] = tested on: COS-1 kidney cancer cell line; experiment: In vitro anticancer activity, MTT assay; format: cell-based; conditions: for in-vitro cytotoxicity in kidney cancer cell line (COS-1): result in words
Description: as §1

[8] = tested on: IEC-6 small intestine cell line; experiment: In vitro anticancer activity, MTT assay; format: cell-based; conditions: for in-vitro cytotoxicity in small intestine cancer cell line (IEC-6): result in words
Description: as §1

[9] = tested on: L-6 skeletal cancer cell line; experiment: In vitro anticancer activity, MTT assay; format: cell-based; conditions: result in words
Description: as §1

L-6 = experiment: In vitro anticancer activity, MTT assay; format: cell-based; conditions: skeletal cancer cell line; MTT, 48 h continuous drug exposure
Description: as §1

[10] = lung cancer cell line, MTT, 48 h continuous drug exposure, read-out: IC50 A549
[11] = liver cancer cell line, MTT, 48 h continuous drug exposure, read-out: IC50 HEPG2
[12] = small intestine cell line, MTT, 48 h continuous drug exposure, read-out: IC50 IEC-6

| Molecule | ΔTm after incubation at 37° C. for 0 hr (calf thymus DNA (CT-DNA)) [°C] | ΔTm after incubation at 37° C. for 18 hrs (calf thymus DNA (CT-DNA)) [°C] | IC50 [1, 10] [nM] | in-vitro cytotoxicity in lung cancer cell line (A549) [1] | IC50 [2, 11] [nM] | in-vitro cytotoxicity in liver cancer cell line (HEPG2) [2] | IC50 [3] [nM] | in-vitro cytotoxicity in breast cancer cell line (MCF-7) [3] | IC50 [4] [nM] | in-vitro cytotoxicity in large cell lung cancer cell line (NCIH460) [4] | IC50 [5] [nM] | in-vitro cytotoxicity in prostrate cancer cell line (PC-3) [5] | IC50 ([6]; read-out: IC50 COS-1) [nM] | in-vitro cytotoxicity in kidney cancer cell line (COS-1) [7] | in-vitro cytotoxicity in small intestine cancer cell line (IEC-6) [8] | IC50 [8, 12] [nM] | in-vitro cytotoxicity in skeletal cancer cell line (L-6) [9] | IC50 (L-6) [nM] | further results |
| --- | --- | --- | --- | --- | --- | --- | --- | --- | --- | --- | --- | --- | --- | --- | --- | --- | --- | --- | --- |
| COc1cc2cc3c(cc2cc1OCCN1CCN(c2ccccn2)CC1)N=C[C@@H]1CCCN1C3=O [12a, 8-Methoxy-9-(2-[4-(2-pyridyl)piperazino]ethoxy)-(13aS)-1,2,3,13a-tetrahydro-5H-pyrrolo[2,1-c][1,4]naphthodiazepin-5-one] | 5.8 | 7.1 | 320 | exhibiting in-vitro cytotoxicity | 220 | exhibiting in-vitro cytotoxicity | 10 | exhibiting in-vitro cytotoxicity | 240 | exhibiting in-vitro cytotoxicity | 100 | exhibiting in-vitro cytotoxicity | 4320 | exhibiting in-vitro cytotoxicity | exhibiting in-vitro cytotoxicity | 160 | exhibiting in-vitro cytotoxicity | 860 | – |
| 8-Methoxy-9-(2-chloroethoxy)-(13aS)-1,2,3,13a-tetrahydro-5H-pyrrolo[2,1-c][1,4]naphthodiazepine-5-one [1a] | 6.2 | 7.6 | 20 | exhibiting in-vitro cytotoxicity | 520 | exhibiting in-vitro cytotoxicity | 50 | exhibiting in-vitro cytotoxicity | 300 | exhibiting in-vitro cytotoxicity | 390 | exhibiting in-vitro cytotoxicity | 3060 | exhibiting in-vitro cytotoxicity | exhibiting in-vitro cytotoxicity | 20 | exhibiting in-vitro cytotoxicity | 1080 | – |
| COc1cc2cc3c(cc2cc1OCCN1CCN(c2ncccn2)CC1)N=C[C@@H]1CCCN1C3=O [13a, 8-Methoxy-9-(2-[4-(2-pyrimidinyl)piperazino]ethoxy)-(13aS)-1,2,3,13a-tetrahydro-5H-pyrrolo[2,1-c][1,4]naphthodiazepin-5-one] | 5.0 | 6.5 | 860 | exhibiting in-vitro cytotoxicity | 40 | exhibiting in-vitro cytotoxicity | 40 | exhibiting in-vitro cytotoxicity | 260 | exhibiting in-vitro cytotoxicity | 80 | exhibiting in-vitro cytotoxicity | 1870 | exhibiting in-vitro cytotoxicity | exhibiting in-vitro cytotoxicity | 20 | exhibiting in-vitro cytotoxicity | 610 | – |
| COc1cc2cc3c(cc2cc1OCCN1CCN(c2ccccn2)CC1)C(=O)N1CCC[C@H]1C=N3 [23a, 9-Methoxy-8-(2-[4-(2-pyridyl)piperazino]ethoxy)-(13aS)-1,2,3,13a-tetrahydro-5H-pyrrolo[2,1-c][1,4]naphthodiazepin-5-one] | 5.0 | 6.8 | – | exhibiting in-vitro cytotoxicity | – | exhibiting in-vitro cytotoxicity | – | exhibiting in-vitro cytotoxicity | – | exhibiting in-vitro cytotoxicity | – | exhibiting in-vitro cytotoxicity | – | exhibiting in-vitro cytotoxicity | exhibiting in-vitro cytotoxicity | – | exhibiting in-vitro cytotoxicity | 740 | IC50 ([1]; Homo sapiens, A549, lung cancer cell line, MTT, 48 h continuous drug exposure, read-out: IC50 A549): 1990 nM; IC50 ([1]; Homo sapiens, A549, range over the listed compounds, exposure period of at least 48 hrs, read-out: IC50 against lung cancer cell lines): 20 to 11900 nM; IC50 ([2]; Homo sapiens, HepG2, liver cancer cell line, MTT, 48 h continuous drug exposure, read-out: IC50 HEPG2): 40 nM; IC50 ([2]; Homo sapiens, HepG2, range over the listed compounds, exposure period of at least 48 hrs, read-out: IC50 against liver cancer cell lines): 20 to 7320 nM; IC50 ([3]; Homo sapiens, MCF7): 20 nM; IC50 ([4]; Homo sapiens, NCI-H460): 110 nM; IC50 ([5]; Homo sapiens): 100 nM; IC50 ([6]; COS-1): 4320 nM; IC50 ([7]; COS-1, range over the listed compounds, exposure period of at least 48 hrs, read-out: IC50 against kidney cancer cell lines): 800 to 4320 nM; IC50 ([8]; IEC-6, range over the listed compounds, exposure period of at least 48 hrs, read-out: IC50 against small intestine cancer cell lines): 10 to 5840 nM; IC50 ([8]; IEC-6, small intestine cell line, MTT, 48 h continuous drug exposure, read-out: IC50 IEC-6): 10 nM |
